Test results taken from patent publication EP0563112B1, “ENHANCED BIOAVAILABILITY PHARMACEUTICAL COMPOSITION CONTAINING PROBUCOL” (MERRELL DOW PHARMACEUTICALS INC., priority 1990, dated 1992).

Key:
[1] = Solubility determination of probucol in oils and binary solvent systems (HPLC assay); format: physicochemical
From the text: Captex® 200 is a propylene glycol ester of caprylic (C₈) and capric (C₁₀) fatty acids obtained by fractionation of certain coconut oil fatty acids and is known generically as propylene glycol dicaprylate/dicaprate. Captex® 300 is a caprylic and capric acid triglyceride obtained by fractionation and subsequent esterification of coconut oil and is known generically as caprylic/capric triglyceride. Capmul® MCM is a mono and diglyceride of caprylic and capric acids.
Eight grams of each oil were transferred into a glass tube with a teflon liner screw cap, and 2.5 g of probucol were added to each tube. The tubes were capped and shaken by hand until the probucol particles were wetted. The tubes were then rotated for at least 48 hours on a test tube rotating apparatus. The solubility of probucol was determined using a high performance liquid chromatography (HPLC) assay procedure.
In order to determine if the solubility of probucol could be enhanced by incorporating absolute ethanol in the oil, three binary systems: safflower oil:ethanol (90:10), polyethylene glycol (PEG) 400:ethanol (90:10, 80:20, 70:30), and Captex® 200:ethanol (95:5, 90:10, 85:15, 80:20, and 75:25) were evaluated. The solubility data shown in Table II indicate that in each case the solubility of probucol increased in the presence of ethanol.

[2] = Heeg and Tachizawa 1980; cited from earlier work

Solubility (%w/v) ([1]; Captex® 200:Ethanol 75:25): 26.0 %w/v
Solubility (%w/v) ([1]; Captex® 200:Ethanol 80:20): 26.0 %w/v
Solubility (%w/v) ([1]; Captex® 200:Ethanol 85:15): 25.0 %w/v
Solubility (%w/v) ([1]; Captex® 200:Ethanol 90:10): 24.0 %w/v
Solubility (%w/v) ([1]; Captex® 200:Ethanol 95:5): 23.0 %w/v
Solubility (%w/v) ([1]; PEG 400 100:00): 2.8 %w/v
Solubility (%w/v) ([1]; PEG 400:Ethanol 80:20): 9.5 %w/v
Solubility (%w/v) ([1]; PEG 400:Ethanol 90:10): 5.8 %w/v
Solubility (%w/v) ([1]; PEG 400 Ethanol 70:30): 13.1 %w/v
Solubility (%w/v) ([1]; Safflower Oil:Ethanol 90:10): 11.5 %w/v
Solubility (%w/v) ([1]; in Capmul® MCM): 6.3 % w/v
Solubility (%w/v) ([1]; in Captex® 200): 18.2 % w/v
Solubility (%w/v) ([1]; in Captex® 300): 12.5 % w/v
Solubility (%w/v) ([1]; in Corn oil): 5.8 % w/v
Solubility (%w/v) ([1]; in Olive oil): 5.5 % w/v
Solubility (%w/v) ([1]; in Peanut oil): 5.6 % w/v
Solubility (%w/v) ([1]; in Safflower oil): 5.9 % w/v
Solubility (%w/v) ([1]; in Sunflower oil): 5.8 % w/v
Solubility (%w/v) ([1]; in Vegetable oil): 5.8 % w/v
Compound: CC(C)(Sc1cc(C(C)(C)C)c(O)c(C(C)(C)C)c1)Sc1cc(C(C)(C)C)c(O)c(C(C)(C)C)c1 [probucol, 2,2'-bis (3,5-di-tertiarybutyl-4-hydroxyphenylthio)propane]
bioavailability of probucol from tablet dosage form [2]: 2-8%
